By viability is commonly meant a per cent measure of how many cells are alive, often set against a control.

Data set [1] is described as follows: Cyclic voltammetry, electrochemical characterization of the antioxidant capacity. It is filed as physicochemical. As to conditions: for Ep (peak potential) / Ip (peak intensity) / ΔEp (difference between anodic and cathodic peak): glassy carbon electrode, ± SD of three measurements; for Ep (peak potential): 20 mM acetate buffer pH 3.6, vs Ag|AgCl|KCl (3M); for Ip (peak intensity) / ΔEp (difference between anodic and cathodic peak): 20 mM acetate buffer pH 3.6. The method, then: Electrochemical measurements were carried out on an Autolab PGSTAT 12 potentiostat from Metrohm (Utrecht, The Netherlands), employing a glassy carbon (GC) disk working electrode. The GC electrode was polished after each measurement using a 0.1 and 0.05 µm alumina/water slurry until a shiny mirror-like finish was achieved, and washed with ultrapure water. Electrodes were modified with 1 mM solutions of each compound (L, G1, and G2) in MeOH; 5 µL drops were drop-cast in the electrode and allowed to dry before the measurements. Electrochemical measurements were performed in a 20 mM acetate buffer solution (pH 3.6), employing an Ag|AgCl|KCl (3M) reference electrode and a platinum wire as a counterelectrode.
Electrochemical characterization of the antioxidant capacity: The electrochemical behavior of the synthesized polyphenolic dendrimers (1–6), together with the free polyphenol (L), has been investigated using cyclic voltammetry (CV). CV is a powerful electrochemical technique that can be employed to study the ability of a molecule to undergo electron transfer and to estimate the antioxidant activity through the peak potential (Ep), intensity (ip), and reversibility (ΔEp). A lowering in the Ep or ΔEp and an increase in the ip are indicative of higher antioxidant activity.

For data set [2], the system named is Escherichia coli (CECT 515). Nature of the data set: In vitro antibacterial activity (ISO 20776-1:2006), turbidity at 625 nm. The data set is classed as cell-based. As to conditions: CECT515, E. coli, 24 h at 37 °C, 1% DMSO, tested up to 16 ppm, read-out: MIC50. The method, then:
(§1) In vitro antibacterial analysis of dendritic polyphenols was performed following the international standard method ISO 20776-1:2006 [22]. The antibacterial activity was assayed in two different bacteria, Escherichia coli (CECT 515) and Staphylococcus aureus (CECT 240), both obtained from the Spanish Type Culture Collection in lyophilized form. The biocide solutions were prepared following the EUCAST (European Committee for Antimicrobial Susceptibility Testing) protocol for hydrophobic compounds. For this purpose, stock solutions in DMSO of each compound were made and then, subsequent dilutions in Mueller-Hinton […] (Scharlau, ref. 02–136) were developed to obtain the testing concentrations (from 0.0312 ppm to 16 ppm) with 1% of DMSO. The assay was carried out in 96-well plates, with two different wells for each concentration and with different controls (biocide, inoculum, culture medium, and DMSO). The bacteria were inoculated at a concentration of 10^5 CFU/mL in wells. After 24 h of incubation with biocides at 37 °C, the increase of turbidity at 625 nm was determined using an Ultra Microplate reader (BIO-TECK Instruments, model ELx808). MIC50 and MIC80 values were the concentrations of the compounds with an optical density of 50% and 20% compared to nontreated bacteria.

Data set [3] concerns Staphylococcus aureus (CECT 240). Described as above. The data set is classed as cell-based. As to conditions: CECT240, S. aureus, 24 h at 37 °C, 1% DMSO, tested up to 16 ppm; for IC50: read-out: MIC50; for IC80: read-out: MIC80. The method, then: as §1
Data set [4] in a line: Cell viability by MTT assay. It is filed as cell-based, human. As to conditions: human; for viability at 24 h, 16 ppm: HFF-1, 16 ppm; for viability at 24 h, 8 ppm: HFF-1, 8 ppm. On the procedure:
(§2) HFF-1 cells were grown routinely in DMEM (Dulbecco’s modified Eagle’s medium, Sigma Aldrich, St. Louis, MO, USA, ref. D6429) supplemented with 10% fetal bovine serum (FBS, Sigma Aldrich, ref. F7524) and 1% penicillin/streptomycin/amphotericin B (Sigma Aldrich, ref. A5955) at 37 °C and 5% CO2. Cells were seeded in 96-well plates (Nunclon Delta Surface, Thermo Fischer Scientific, Waltham, MA, USA; 8 × 10^3 cells per well) and grown in a complete DMEM medium for 24 h. Cell viability was determined by MTT assay (MTT, 3-(4,5-dimethyl-2-thiazolyl)-2,5-diphenyl-2H-tetrazolium bromide). A stock compound solution was prepared in DMSO. Then, dilutions in cell culture were made to obtain the final concentrations with 1% of DMSO per well. […] After incubation, MTT was added at a concentration of 5 mg/mL and plates were incubated for 3 h. Finally, the culture medium was removed and the purple formazan crystals formed by the mitochondrial dehydrogenase and reductase activity of vital cells were dissolved in DMSO. The optical density, directly proportional to the number of surviving cells, was quantified at 570/630 nm in a spectrophotometer BioTEK 800 (Izasa). The assay was carried out in triplicate, with eight different wells for each concentration and with different controls (culture medium and DMSO).
In general terms: Formazan colour is commonly taken as a measure of viable cells.

A short description of data set [5]: DPPH free radical-scavenging assay. The following applies: stated as the same activity as the cited polyether dendrimers. On the procedure:
This method involves the radical concentration reduction by the antioxidant agent, which entails absorbance reduction and increasing compound concentration. When antioxidants are mixed with DPPH solution, the color turns from purple to yellow, with the maximum absorption at 530 nm. The ability of dendritic polyphenols to scavenge the DPPH radical was evaluated. An aliquot of 100 µL of different stock sample concentrations in the range of 0.01 and 100 µM in methanol was added to a volume of 900 µL of a DPPH stock solution (0.12 mM) in a DMSO/H2O (1:1) mixture. The mixture was shaken, kept in the dark at room temperature, and recorded at 530 nm every 5 min up to 30 min. The blank was constituted by methanol instead of the sample.
The IC50 of DPPH scavenging activity and EC50 of FRAP capacities were calculated following similar protocols. Firstly, for each concentration, it was necessary to calculate the DPPH remnant, as well as the Fe(II) that formed, through the following equations: 1. DPPHREM(%)=(As/Ac)×100 2. Fe(II)FOR(%)=(As−Ac/Ac)×100 where REM = remnant, FOR = formed, As = Sample absorbance, and Ac = Control absorbance. The graphical representation of the percentage of the remnant or formed reagent versus the −log[X] […] The results are expressed as mean ± SEM and are representative of at least three independent experiments.

The next data set concerns HFF-1 cells. Nature of the data set: Cell viability by MTT assay. The data set is classed as cell-based, human. The following applies: HFF-1, 16 ppm, 24 h. The method, then: as §2
The mark [6] stands for this setting: G2 compared to free polyphenol L.

Converted amounts (≈) assume the structure as drawn. Bounds are passed on as bounds.

As for `O=C(O)/C=C/c1ccc(O)c(O)c1` [Caffeic L, reference compound], in data set [1], the “Ep (peak potential)” value is on record as 0.263 ± 0.005 V; the “Ip (peak intensity)” value turned out to be 2.91 ± 0.07 µA; the “ΔEp (difference between anodic and cathodic peak)” value is listed as 0.205 ± 0.002 V. In data set [2], the IC50 was over 16 µg/mL. Also, in data set [3], the IC50 was over 16 µg/mL and the IC80 was over 16 µg/mL.

With `COc1cc(C=CC(=O)O)ccc1O` [Ferulic L, 3-(4-hydroxy-3-methoxyphenyl)-2-propenoic acid, reference compound], in data set [1], the “Ep (peak potential)” value is recorded as 0.686 ± 0.009 V and the “Ip (peak intensity)” value came to 3.70 ± 0.08 µA. The IC50 in data set [2] is over 16 µg/mL. In data set [3], the IC50 was over 16 µg/mL and the IC80 was over 16 µg/mL.

`COc1cc(/C=C/C(=O)NCCC[Si](C)(C)CCC[Si](CCC[Si](C)(C)CCCNC(=O)/C=C/c2ccc(O)c(OC)c2)(CCC[Si](C)(C)CCCNC(=O)/C=C/c2ccc(O)c(OC)c2)CCC[Si](C)(C)CCCNC(=O)/C=C/c2ccc(O)c(OC)c2)ccc1O` [G1 (1), G1-[Si(CH2)3NH(CO)CH=CHCH2Ph(OH)(OCH3))]4]: in data set [1], the “Ep (peak potential)” value was found to be 0.637 ± 0.002 V and the “Ip (peak intensity)” value worked out at 0.75 ± 0.06 µA. Also, in data set [2], the IC50 is over 16 µg/mL. Besides, in data set [3], the IC50 was over 16 µg/mL and the IC80 is over 16 µg/mL. The compound further came in with a viability at 24 h, 16 ppm in data set [4] of 95.4 ± 6.6%.

For `C[Si](C)(CCCNC(=O)/C=C/c1ccc(O)c(O)c1)CCC[Si](CCC[Si](C)(C)CCCNC(=O)/C=C/c1ccc(O)c(O)c1)(CCC[Si](C)(C)CCCNC(=O)/C=C/c1ccc(O)c(O)c1)CCC[Si](C)(C)CCCNC(=O)/C=C/c1ccc(O)c(O)c1` [G1 (2), G1-[Si(CH2)3NH(CO)CH=CHCH2Ph(OH)2)]4], in data set [1], the “Ep (peak potential)” value turned out to be 0.276 ± 0.009 V; the “Ip (peak intensity)” value worked out at 1.39 ± 0.04 µA; the “ΔEp (difference between anodic and cathodic peak)” value came to 0.188 ± 0.006 V. The IC50 in data set [2] is over 16 µg/mL. Moreover, in data set [3], the IC50 was 8 µg/mL (≈ 6.11 µM) and the IC80 is 16 µg/mL (≈ 12.2 µM). Besides, in data set [4], the viability at 24 h, 8 ppm was 98.8 ± 1.7% and the viability at 24 h, 16 ppm is 100%. In data set [5], this compound returned an IC50 of about 5 µM.

With `C[Si](C)(CCCNC(=O)c1cc(O)c(O)c(O)c1)CCC[Si](CCC[Si](C)(C)CCCNC(=O)c1cc(O)c(O)c(O)c1)(CCC[Si](C)(C)CCCNC(=O)c1cc(O)c(O)c(O)c1)CCC[Si](C)(C)CCCNC(=O)c1cc(O)c(O)c(O)c1` [G1 (3), G1-[Si(CH2)3NH(CO)Ph(OH)3]4], in data set [1], the “Ep (peak potential)” value is given as 0.410 ± 0.008 V and the “Ip (peak intensity)” value came out at 4.12 ± 0.07 µA. In data set [2], the IC50 is 16 µg/mL (≈ 12.6 µM). Besides, in data set [3], the IC50 came to 4 µg/mL (≈ 3.15 µM) and the IC80 stood at 8 µg/mL (≈ 6.3 µM). Besides, the viability at 24 h, 4 ppm in data set [4] (HFF-1, 4 ppm) is 84.8 ± 7.5%. Also, the viability at 24 h, 8 ppm in data set [4] came to 99.1 ± 1%.

Take `COc1cc(/C=C/C(=O)NCCC[Si](C)(C)CCC[Si](C)(CCC[Si](C)(C)CCCNC(=O)/C=C/c2ccc(O)c(OC)c2)CCC[Si](CCC[Si](C)(CCC[Si](C)(C)CCCNC(=O)/C=C/c2ccc(O)c(OC)c2)CCC[Si](C)(C)CCCNC(=O)/C=C/c2ccc(O)c(OC)c2)(CCC[Si](C)(CCC[Si](C)(C)CCCNC(=O)/C=C/c2ccc(O)c(OC)c2)CCC[Si](C)(C)CCCNC(=O)/C=C/c2ccc(O)c(OC)c2)CCC[Si](C)(CCC[Si](C)(C)CCCNC(=O)/C=C/c2ccc(O)c(OC)c2)CCC[Si](C)(C)CCCNC(=O)/C=C/c2ccc(O)c(OC)c2)ccc1O` [G2 (4), G2-[Si(CH2)3NH(CO)CH=CHCH2Ph(OH)(OCH3))]8]: in data set [1] (setting [6]), the “decrease in the Ep compared to L” value was 73 mV. Moreover, in data set [1], the “Ep (peak potential)” value was determined as 0.613 ± 0.008 V and the “Ip (peak intensity)” value was 0.56 ± 0.02 µA. Further, in data set [2], the IC50 was over 16 µg/mL. In data set [3], the IC50 was over 16 µg/mL and the IC80 was over 16 µg/mL. Besides, the “% Viability” value in the data set with HFF-1 cells stood at 92.9 ± 7.4%.

Regarding `C[Si](C)(CCCNC(=O)/C=C/c1ccc(O)c(O)c1)CCC[Si](C)(CCC[Si](C)(C)CCCNC(=O)/C=C/c1ccc(O)c(O)c1)CCC[Si](CCC[Si](C)(CCC[Si](C)(C)CCCNC(=O)/C=C/c1ccc(O)c(O)c1)CCC[Si](C)(C)CCCNC(=O)/C=C/c1ccc(O)c(O)c1)(CCC[Si](C)(CCC[Si](C)(C)CCCNC(=O)/C=C/c1ccc(O)c(O)c1)CCC[Si](C)(C)CCCNC(=O)/C=C/c1ccc(O)c(O)c1)CCC[Si](C)(CCC[Si](C)(C)CCCNC(=O)/C=C/c1ccc(O)c(O)c1)CCC[Si](C)(C)CCCNC(=O)/C=C/c1ccc(O)c(O)c1` [G2 (5), G2-[Si(CH2)3NH(CO)CH=CHCH2Ph(OH)2)]8], in data set [1] (setting [6]), the “decrease in ΔEp compared to L” value is reported as 85 mV. In addition, in data set [1], the “Ep (peak potential)” value stood at 0.302 ± 0.010 V; the “Ip (peak intensity)” value was found to be 0.143 ± 0.09 µA; the “ΔEp (difference between anodic and cathodic peak)” value came out at 0.120 ± 0.009 V. The IC50 in data set [2] was over 16 µg/mL. Also, in data set [3], the IC50 is over 16 µg/mL and the IC80 is over 16 µg/mL. Also, the “% Viability” value in the data set on HFF-1 cells was found to be 100.0 ± 0.0%.

In the case of `O=C(O)c1cc(O)c(O)c(O)c1` [Gallic L, 3,4,5-trihydroxybenzoic acid, reference compound], in data set [1], the “Ep (peak potential)” value came out at 0.477 ± 0.001 V and the “Ip (peak intensity)” value is given as 3.87 ± 0.08 µA. Further, the IC50 in data set [2] was over 16 µg/mL. Besides, in data set [3], the IC50 is over 16 µg/mL and the IC80 is over 16 µg/mL.
